Measured values reported in patent US11137400B2, “Methods for predicting and determining responsiveness to activators of JNK kinase” (UNIVERSITY OF PITTSBURGH-OF THE COMMONWEALTH SYSTEM OF …, priority 2017, dated 2021).
“Also recorded” adds a separate entry of the source. Where a SMILES comes first, the peptide text is derived from it. The star is where a group is joined. Cbz = O=C(OCc1ccccc1)*

Tests used:
hXBP1s [1] = assay: ER stress time course in HEK293T cells, Western blot of hXBP1s; assay type: cell-based, human
Description: (§1) hXBP1s plays an essential role in regulating BMSC support of MM cell growth. […] To test this hypothesis, the time-dependent protein expression patterns of hXBP1s and phosphorylated JNKs (p-JNKs) was determined in cells that were challenged with either a persistent or transient ER stress, induced by either thapsigargin (Thg) or dithiothrietol (DTT), respectively. […] The protein level of hXBP1s started to decline at 6-hrs, and the reduction continued till 12-hr, the end of Thg treatment. In contrast, Thg induced the phosphorylation of JNKs from 6 to 12-hrs of Thg treatment. This activation of JNKs coincided with the decrease in hXBP1s protein levels within the same time frame of Thg treatment (FIG. 1A).
DTT is a reducing agent that disrupts oxidative protein folding in the ER. Since the effects of DTT are rapidly reversible, and DTT can be readily removed by washing, it was used to mimic intermittent ER stress on cells. HEK293T cells were treated with DTT for 30 minutes, then DTT was washed away, and the cells were harvested at various time points after DTT removal. […] In addition, the cells recovered and further increased hXBP is protein expression at 2- and 5-hr post DTT removal. This process coincided with a drastic reduction in JNKs' phosphorylation (FIG. 1B).
(§2) Total cell lysates were prepared with RIPA buffer containing protease inhibitor cocktail and phosphatase inhibitor cocktails I/II (Sigma-Aldrich). After centrifugation, total cell lysates then were separated by 10% sodium dodecyl sulfate polyacrylamide gel electrophoresis and analyzed by immunoblot analysis as described previously. Signals were detected with ECL reagents (GE Healthcare Life Sciences). Semi-quantification of data was performed using Image J. For immunoprecipitation assay, Cells were washed with ice-cold PBS and lysed with lysis buffer (50 mM Tris-HCl, pH 7.5; 150 mM NaCl, 0.1% (wt/vol) Nondiet P40, 1 mM Ethylenediaminetetraacetic acid (EDTA); […]; protease inhibitor cocktail and phosphatase inhibitor cocktails I/II (Sigma-Aldrich). After overnight incubation with Anti-HA-agarose beads (Roche) or anti-hXBP1s antibody at 4° C. on a rotator, following by addition of Protein G Agarose to the reaction containing anti-hXBP1s antibody for 2 h at 4° C. Immunoprecipitates were washed three times with cold lysis buffer and boiled for 5 min in 2× Laemmli buffer for elution of immunoprecipitated HA-hXBP1s or Flag-hXBP1s complex. Samples were resolved in SDS-PAGE (Bio-Rad) and immunoblotted with corresponding antibody.

p-JNKs = assay: ER stress time course in HEK293T cells, Western blot of phosphorylated JNKs; assay type: cell-based, human; settings: 30-minute treatment
Description: as §1
DTT is a reducing agent that disrupts oxidative protein folding in the ER. Since the effects of DTT are rapidly reversible, and DTT can be readily removed by washing, it was used to mimic intermittent ER stress on cells. […]
(§3) Total cell lysates were prepared with RIPA buffer containing protease inhibitor cocktail and phosphatase inhibitor cocktails I/II (Sigma-Aldrich). After centrifugation, total cell lysates then were separated by 10% sodium dodecyl sulfate polyacrylamide gel electrophoresis and analyzed by immunoblot analysis as described previously. Signals were detected with ECL reagents (GE Healthcare Life Sciences). […]

FLAG-hXBP1s [2] = assay: Western blot of FLAG-hXBP1s (WT or S288A) in stably overexpressing KM101 cells; assay type: cell-based, human; settings: for effect of pretreatment on anisomycin-induced repression of FLAG-hXBP1s protein level: then stimulated with anisomycin; for effect on steady-state protein level of hXBP1s S288A mutant: S288A mutant expressing KM101 cells
Description: as §2

hXbp1s mRNA = assay: Real-time PCR of hXbp1s mRNA in FLAG-hXBP1s-overexpressing KM101 cells; assay type: cell-based, human
Description: Real-time PCR was performed as described previously. B-Actin was used as an internal control.

[3] = tested on: HA-hXBP1s / MYC-β-TrCP binding; assay: Co-immunoprecipitation of HA-hXBP1s with MYC-β-TrCP in HEK293T cells; assay type: cell-based, human; settings: 10 nM JNKi for 4 hrs (FIG. 2F)
Description: as §2

VCAM-1 = assay: TNFα-induced VCAM-1 protein expression in KM101 cells, Western blot; assay type: cell-based, human; settings: for TNFα-induced VCAM-1 protein expression: KM101 cells expressing (WT) hXBP1s
Description: as §2

5-TGM cells = assay: Adhesion of 5-TGM cells to TNFα-treated KM101 cells; assay type: cell-based, mouse
Description: Human kidney […], human BM stromal cell lines KM101 cells, mouse MM cell line 5-TGM1, human MM cell lines ANBL-6 and MM1.S were cultured as described. Mouse macrophage cell line RAW264.7 were cultured in DMEM supplemented with 10% FBS. Isolation of primary hBMSCs was performed as described. These studies were approved by the University of Pittsburgh institutional review board and by the VA Pittsburgh Healthcare System institutional animal care and use committee. MM cell growth assay, cell adhesion assays, OCL formation assay were performed as described (Xu et al., Blood, 119:4205-4214 (2012)).

IL-6 = assay: TNFα-induced IL-6 production in KM101 cells, ELISA; assay type: cell-based, human
Description: To determine hIL-6 secretion by BMSCs, supernatants from cell cultures were collected and analyzed with hIL-6 ELISA read-set go kits (eBioscience) according to the manufacturer's instructions, the mice's serum concentration of IgG2b, RANKL, IL-6 and CTX-I were measured with their respectively ELISA kit (Quidel, Roche, Roche and MyBioSource).

hXBP1s [4] = assay: Western blot of steady-state hXBP1s protein (endogenous and overexpressed) in HEK293T and KM101 cells; assay type: cell-based, human
Description: as §2

FLAG-hXBP1s [5] = assay: Western blot of FLAG-hXBP1s in HEK293T cells co-transfected with MYC-β-TrCP and MKK7-JNKs; assay type: cell-based, human; settings: pretreatment of HEK293T cells
Excerpt: Since JNKs repress hXBP1s protein expression, it was hypothesized that JNKs promote its β-TrCP binding and consequent degradation via the UPS-26S proteasome machinery. […] To determine the functional consequence of JNKs' potentiation of the physical interactions between MYC-β-TrCP and HA-hXBP1s. FLAG-XBP1s was overexpressed with a small/moderate amount of MYC-β-TrCP either in the presence or absence of MKK7-JNKs. […] Further, JNKs and MYC-β-TrCP's inhibition of FLAG-hXBP1s was abolished by pretreatment of cells with MG 132 (FIG. 2G). Consistent with the latter observation. […] Taking these observations together, it was concluded that JNKs promote the physical interactions between hXBP1s and D-TrCP, leading to the ubiquitination and consequent protein degradation of hXBP1s that results in a decrease in the steady-state levels of hXBP1s.
as §3

O[C@H](CS)[C@H](O)CS (racemic) [DTT, dithiothreitol]
basal hXBP1s protein expression (hXBP1s [1]; 30-minute treatment): quickly diminished
phosphorylation of JNKs (p-JNKs): strongly induced

CCOc1nc(NC(=O)Cc2cc(OC)ccc2OC)cc(N)c1C#N [JNKi VIII]
steady-state protein level of overexpressed (WT) FLAG-hXBP1s (FLAG-hXBP1s [2]; KM101 cells): dose-dependent up-regulation
effect of pretreatment on anisomycin-induced repression of FLAG-hXBP1s protein level (FLAG-hXBP1s [2]; KM101 cells): largely prevented
steady-state protein level of overexpressed (WT) FLAG-hXBP1s (FLAG-hXBP1s [2]; KM101 cells, listed as JNKi): dose-dependently increased
effect on steady-state protein level of hXBP1s S288A mutant (FLAG-hXBP1s [2]): completely abolished
mRNA expression of hXbp1s (hXbp1s mRNA): no effect
basal level binding of HA-hXBP1s with MYC-β-TrCP [3]: abolished
TNFα-induced VCAM-1 protein expression (VCAM-1): potentiated
ANS inhibition of TNFα-induced VCAM-1 expression in presence of the substance (VCAM-1; KM101 cells, with ANS): compromised
TNFα-induced stromal support of adhesion of 5-TGM cells (5-TGM cells): potentiated
TNFα-induced stromal production of IL-6 (IL-6): potentiated

CC(C)C[C@@H](C=O)NC(=O)[C@H](CC(C)C)NC(=O)[C@H](CC(C)C)NC(=O)OCc1ccccc1 [MG132] (Cbz-Leu-Leu-Leu-aldehyde)
steady-state level of both endogenous and overexpressed hXBP1s (hXBP1s [4]): promptly and greatly elevated
discrepancy in protein expression of S288A mutant and WT hXBP1s (FLAG-hXBP1s [2]; KM101 cells): abolished
effect of pretreatment on anisomycin-induced repression of FLAG-hXBP1s protein level (FLAG-hXBP1s [2]; KM101 cells): completely blocked
JNKs and MYC-β-TrCP's inhibition of FLAG-hXBP1s (FLAG-hXBP1s [5]): abolished

O=S(=O)(N=Cc1c(O)ccc2ccccc12)c1cccs1 [STF-083010]
TNFα-induced VCAM-1 protein expression (VCAM-1): repressed
JNKi's promotion of TNFα-induced stromal induction of VCAM-1 (VCAM-1; KM101 cells, with JNKi): compromised
TNFα-induced stromal support of adhesion of 5-TGM cells (5-TGM cells): repressed
JNKi's promotion of stromal support to 5-TGM cells' adhesion (5-TGM cells; with JNKi): compromised
TNFα-induced stromal production of IL-6 (IL-6): repressed
JNKi's promotion of stromal production of IL-6 (IL-6; with JNKi): compromised

C/C=C(/C)C(=O)O[C@H]1C(C)=C2[C@H]([C@@H]1OC(=O)CCCCCCC)[C@@](C)(OC(C)=O)C[C@H](OC(=O)CCC)[C@@]1(O)[C@H]2OC(=O)[C@@]1(C)O [Thg, thapsigargin]
time at which endogenous hXBP1s peaked (hXBP1s [1]): 4 h
time at which up-regulation of endogenous hXBP1s was first detected (hXBP1s [1]): 2 h
time at which hXBP1s protein level started to decline (hXBP1s [1]; reduction continued till 12-hr): 6 h
protein expression of endogenous hXBP1s during persistent ER stress (hXBP1s [1]; treatment up to 12-hr): time-dependent up-regulation

COc1ccc(C[C@H]2NC[C@H](O)[C@H]2OC(C)=O)cc1 [anisomycin]
steady-state protein level of overexpressed (WT) FLAG-hXBP1s (FLAG-hXBP1s [2]; KM101 cells): drastically decreased; also recorded: greatly reduced
effect on steady-state protein level of hXBP1s S288A mutant (FLAG-hXBP1s [2]): completely lost its inhibitory effect
mRNA expression of hXbp1s (hXbp1s mRNA): no effect
TNFα-induced VCAM-1 protein expression (VCAM-1; listed as ANS): dose-dependently repressed; also recorded: dose-dependently blocked
inhibitory effect on TNFα-induced VCAM-1 protein expression in S288A mutant cells (VCAM-1; S288A mutant-overexpressing KM101 cells): largely abolished
